Article PMC4971072, “Chemically Homogenous Compounds with Antagonistic Properties at All α1-Adrenoceptor Subtypes but not β1-Adrenoceptor Attenuate Adrenaline-Induced Arrhythmia in Rats” (Frontiers in Pharmacology, 2016)
Read-outs that look alike come from different tables or passages of the source. Marks after values point to notes of the source that are not given here.

Experiments:
[1] = target: α1-adrenoceptor; assay: α1-adrenoceptor radioligand binding assay ([3H]-prazosin, rat cerebral cortex); details: read-out: Adrenergic receptors Ki α1
Protocol: The α1- and β1-adrenoceptor radioligand binding assay was performed on rat cerebral cortex. […] The cell pellet was resuspended in the Tris–HCl buffer and centrifuged again. Radioligand binding assays were performed in plates (MultiScreen/Millipore). […] The incubation was terminated by rapid filtration through glass fiber filters (Whatman GF/C) using a vacuum manifold (Millipore). The filters were then washed twice with the assay buffer and placed in scintillation vials with a liquid scintillation cocktail. […] All the assays were made in duplicate and the inhibitory constants (Ki) were estimated.
LO–labeled ligand concentration, KD–dissociation constant of labeled ligand

[2] = test system: adrenaline-induced arrhythmia in rats; assay: Prophylactic antiarrhythmic activity in adrenaline-induced arrhythmia; assay type: in vivo, rat
Protocol: The studied compounds were administered i.p. 45 min before the injection of adrenaline, calcium chloride, or barium chloride. The electrocardiogram (ECG) was recorded during the first 2 min as well as in the 5th, 10th, and 15th min after the arrhythmogen injection. […]

[3] = test system: α1B−adrenoceptor; parameters: method as in Koshimizu et al. (2004); details: ref Koshimizu et al. (2004); cited from earlier work
[4] = test system: α1A−adrenoceptor subtype; parameters: method as in Koshimizu et al. (2004); details: ref Koshimizu et al. (2004); cited from earlier work
[5] = target: α1-adrenoceptor; details: ref Pönicke et al. (2002); read-out: Adrenergic receptors Ki α1; cited from earlier work
[6] = test system: lipid peroxidation in rat brain homogenate; assay: Lipid peroxidation in rat brain homogenate (TBARS), antioxidant effect; assay type: biochemical; details: 10^−3 M
Protocol: The rat brain homogenate containing 10 mg tissue/ml was prepared in 0.9% saline. The rates of membrane lipid peroxidation were measured by the formation of thiobarbituric acid reactive substances (TBARS). Rat brain homogenates (1 ml) were incubated at 37°C for 5 min with 10 μl of a tested compound or vehicle. Lipid peroxidation was initiated by the addition of 50 μl of 0.5 mM FeCl2 and 50 μl of 2.0 mM ascorbic acid. After 30 min of incubation, the reaction was stopped by adding 0.1 ml of 0.2% butylated hydroxytoluene (BHT). Thiobarbituric acid reagent was then added and the mixture was heated for 15 min in a boiling water bath.

[7] = target: T1, α1A-adrenoceptors (Rattus norvegicus, UniProt P43140); details: rat tail artery, cited from earlier work
T1 construct: the middle part of the ventral caudal artery was removed; from tissue; host or cells: isolated rat tail (ventral caudal) artery rings
T1 sequence (P43140 1-466): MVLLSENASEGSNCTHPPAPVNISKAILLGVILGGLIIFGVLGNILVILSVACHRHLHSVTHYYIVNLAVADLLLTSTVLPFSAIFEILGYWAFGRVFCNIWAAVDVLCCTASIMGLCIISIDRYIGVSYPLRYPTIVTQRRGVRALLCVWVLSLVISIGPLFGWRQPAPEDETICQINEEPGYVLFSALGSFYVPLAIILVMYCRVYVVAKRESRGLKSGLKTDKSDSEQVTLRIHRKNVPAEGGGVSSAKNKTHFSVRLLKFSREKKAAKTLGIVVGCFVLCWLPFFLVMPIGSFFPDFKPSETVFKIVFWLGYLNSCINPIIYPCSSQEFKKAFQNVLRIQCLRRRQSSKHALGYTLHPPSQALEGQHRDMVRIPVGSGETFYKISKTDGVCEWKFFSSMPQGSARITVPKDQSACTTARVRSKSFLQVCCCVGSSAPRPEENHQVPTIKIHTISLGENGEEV

[8] = target: T2, α1B-adrenoceptors (Mus musculus, UniProt P97717); details: mouse spleen, cited from earlier work
T2 construct: The spleen was removed from male mice; from tissue; host or cells: isolated mouse spleen
T2 sequence (P97717 1-514): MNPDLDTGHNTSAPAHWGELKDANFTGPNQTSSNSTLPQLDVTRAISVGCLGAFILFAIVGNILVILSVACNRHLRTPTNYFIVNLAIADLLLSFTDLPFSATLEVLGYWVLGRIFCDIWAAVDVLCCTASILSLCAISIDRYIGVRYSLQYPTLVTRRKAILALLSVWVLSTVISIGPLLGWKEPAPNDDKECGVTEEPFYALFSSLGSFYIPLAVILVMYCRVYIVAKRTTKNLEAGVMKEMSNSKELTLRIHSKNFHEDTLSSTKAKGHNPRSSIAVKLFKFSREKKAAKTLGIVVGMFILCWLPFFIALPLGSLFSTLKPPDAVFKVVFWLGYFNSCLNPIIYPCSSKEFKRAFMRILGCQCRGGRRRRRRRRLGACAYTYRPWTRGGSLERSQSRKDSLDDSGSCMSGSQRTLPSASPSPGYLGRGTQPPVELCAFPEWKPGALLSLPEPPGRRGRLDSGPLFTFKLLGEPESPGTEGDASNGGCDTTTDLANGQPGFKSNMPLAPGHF

[9] = target: T3, α1D-adrenoreceptors (Rattus norvegicus, UniProt P23944); details: rat aorta; ref Eltze (1996); cited from earlier work
T3 sequence (P23944 1-561): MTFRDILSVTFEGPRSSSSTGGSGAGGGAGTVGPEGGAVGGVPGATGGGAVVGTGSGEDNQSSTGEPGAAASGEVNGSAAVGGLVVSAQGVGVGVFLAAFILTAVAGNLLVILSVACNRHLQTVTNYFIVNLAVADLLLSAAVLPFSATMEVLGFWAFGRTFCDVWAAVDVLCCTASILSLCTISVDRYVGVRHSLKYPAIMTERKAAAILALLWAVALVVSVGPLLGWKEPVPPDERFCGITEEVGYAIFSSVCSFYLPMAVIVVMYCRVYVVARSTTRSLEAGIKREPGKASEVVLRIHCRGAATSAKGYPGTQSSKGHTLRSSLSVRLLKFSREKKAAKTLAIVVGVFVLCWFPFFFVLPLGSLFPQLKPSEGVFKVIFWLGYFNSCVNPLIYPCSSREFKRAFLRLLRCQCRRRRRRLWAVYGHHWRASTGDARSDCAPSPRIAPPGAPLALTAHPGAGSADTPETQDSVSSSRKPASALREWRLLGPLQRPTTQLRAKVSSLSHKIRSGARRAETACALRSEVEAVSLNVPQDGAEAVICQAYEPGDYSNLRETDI

[10] = adrenaline 20 μg/kg i.v. alone (arrhythmia control)

Work on `Cc1ccc(N(CC2=NCCN2)c2cccc(O)c2)cc1` [Phentolamine, phentolamine, reference compound] yielded a Ki [1] of 18.3 nM.
With `CNC[C@H](O)c1ccc(O)c(O)c1` [Adrenaline, adrenaline] the “Bigeminy (%)” value [2, 10] was 33.3%, the “Blocks (%)” value [2, 10] was 50.0% and the “Bradycardia (%)” value [2, 10] was 66.7%.
In the case of `COc1ccccc1OCCNCC(O)COc1cccc2[nH]c3ccccc3c12` (stereo not shown) [Carvedilol, carvedilol, reference compound], the “pA2 value for α1B−adrenoceptor” value [3] is listed as 10.0, the “pA2 value for α1A−adrenoceptor subtype” value [4] is listed as 9.0 and the Ki [5] is listed as […]. The “inhibition of lipid peroxidation (in words)” value [6] was “inhibited lipid peroxidation”, the “% reduction of absorbance (% antioxidant activity)” value ([6]; TBARs at 532 nm) was 89.58% and the Absorbance ([6]; TBARs at 532 nm) was 0.094 ± 0.002. For the same compound, the ED50 ([2]; Rattus norvegicus, read-out: ED50 (confidence limits)) was 0.36 mg/kg.
In the case of `CCOc1ccccc1OCCN[C@H](C)Cc1ccc(OC)c(S(N)(=O)=O)c1` [Tamsulosin], the “pA2 ± S.E.M., α1A” value ([7]; ref Jähnichen et al. (2004)) is listed as 10.32 ± 0.05^c and the “pA2 ± S.E.M., α1B” value ([8]; ref Eltze et al. (1999)) is listed as 8.33 ± 0.08^d.
In the case of `COc1cc2nc(N3CCN(C(=O)c4ccco4)CC3)nc(N)c2cc1OC` [Prazosin, prazosin], the “pA2 ± S.E.M., α1D” value [9] is given as 8.85 ± 0.09^b, the “pA2 ± S.E.M., α1A” value ([7]; ref Parés-Hipólito et al. (2006)) is given as 8.93 ± 0.03^a and the “pA2 ± S.E.M., α1B” value ([8]; ref Eltze (1996)) is given as 9.07 ± 0.09^b.
